Data reported in PMC12136037, “Type II kinase inhibitors that target Parkinson’s disease–associated LRRK2” (Science Advances, 2025).
“And” between values parts separate entries of the source, which are not always exact repeats. Equal entries are not always repeated. Where two headings read alike, the source gives them in different places.

How the values were obtained:
Experiment in all cases: nanoBRET off-target validation
Format in all cases: cell-based
[1] = molecular target: T1, CDKL1 (Homo sapiens, UniProt Q00532)
T1 construct: host or cells: HEK293T (ATCC CRL-3216)
Protocol: (§1) The assay was performed as described previously ([61]). In brief, full-length kinases as listed in table S6 were obtained as plasmids cloned in frame with terminal NanoLuc-fusion (gift from Promega; table S6). […] Serially diluted inhibitor and corresponding tracer as listed in table S6 at the Tracer KD concentration taken from TracerDB (tracerdb.org) ([62]) were pipetted into white 384-well plates (Greiner, 781207) using an ECHO acoustic dispenser (Labcyte). The corresponding protein-transfected cells were added and reseeded at a density of 2 × 10^5 cells/ml after trypsinization and resuspending in Opti-MEM without phenol red (Life Technologies). The system was allowed to equilibrate for 3 hours at 37°C/5% CO2 before bioluminescence resonance energy transfer (BRET) measurements. To measure BRET, NanoBRET NanoGlo Substrate + extracellular NanoLuc Inhibitor (Promega, N2540) was added as per the manufacturer’s protocol, and filtered luminescence was measured on a PHERAstar plate reader (BMG Labtech) equipped with a luminescence filter pair [450-nm BP filter (donor) and 610-nm LP filter (acceptor)]. […] (For step-by-step protocol, see www.eubopen.org/sites/www.eubopen.org/files/attachments/2021/NanoBRET-IC50_v1_0.pdf.)

[2] = molecular target: T2, JNK2 (Homo sapiens, UniProt P45984)
T2 construct: host or cells: HEK293T (ATCC CRL-3216)
Protocol: as §1

[3] = molecular target: T3, STK17B (Homo sapiens, UniProt O94768)
T3 construct: host or cells: HEK293T (ATCC CRL-3216)
T3 sequence (O94768 1-372): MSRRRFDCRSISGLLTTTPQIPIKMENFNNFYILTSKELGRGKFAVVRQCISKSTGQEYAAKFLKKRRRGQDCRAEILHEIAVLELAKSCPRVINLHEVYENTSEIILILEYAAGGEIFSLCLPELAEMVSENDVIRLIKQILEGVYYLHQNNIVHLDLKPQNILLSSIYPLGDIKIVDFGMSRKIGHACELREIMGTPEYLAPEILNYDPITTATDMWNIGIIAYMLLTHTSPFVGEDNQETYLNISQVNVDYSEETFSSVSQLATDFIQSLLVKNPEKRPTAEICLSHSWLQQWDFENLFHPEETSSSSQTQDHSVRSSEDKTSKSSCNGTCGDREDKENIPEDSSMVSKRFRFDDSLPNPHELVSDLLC
Protocol: as §1

T2 sequence (P45984 whole entry): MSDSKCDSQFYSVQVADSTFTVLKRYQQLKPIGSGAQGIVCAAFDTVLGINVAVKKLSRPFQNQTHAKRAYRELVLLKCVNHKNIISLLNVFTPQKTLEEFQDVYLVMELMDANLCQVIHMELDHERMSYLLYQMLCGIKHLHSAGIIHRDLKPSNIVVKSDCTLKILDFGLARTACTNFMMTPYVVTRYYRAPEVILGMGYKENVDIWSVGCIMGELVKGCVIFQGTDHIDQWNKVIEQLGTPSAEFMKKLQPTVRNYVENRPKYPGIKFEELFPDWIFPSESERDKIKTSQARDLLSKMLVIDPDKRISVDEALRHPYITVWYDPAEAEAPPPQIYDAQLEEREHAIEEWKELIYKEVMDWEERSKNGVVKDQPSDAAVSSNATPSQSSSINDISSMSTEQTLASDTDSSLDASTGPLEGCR
T1 sequence (Q00532 whole entry): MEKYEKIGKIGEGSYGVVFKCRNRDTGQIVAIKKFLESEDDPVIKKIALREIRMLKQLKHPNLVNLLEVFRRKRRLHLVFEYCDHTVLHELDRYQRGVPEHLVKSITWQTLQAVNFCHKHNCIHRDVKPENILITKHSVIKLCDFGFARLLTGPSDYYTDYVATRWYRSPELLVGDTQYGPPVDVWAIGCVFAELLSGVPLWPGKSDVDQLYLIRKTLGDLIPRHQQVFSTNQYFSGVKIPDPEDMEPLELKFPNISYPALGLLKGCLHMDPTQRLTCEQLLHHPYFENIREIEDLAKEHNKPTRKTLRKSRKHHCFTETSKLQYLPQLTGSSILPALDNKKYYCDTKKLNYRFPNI

With `CCSc1nc(NC)c2c(-c3cccc(NC(=O)Nc4cc(C(C)(C)C)nn4-c4ccc(C)cc4)c3)c[nH]c2n1` [Compound 32] the EC50 [1] was 17 µM, the remaining activity at 0.008 µM ([1]; CDKL1, inhibitor 8 nM, two replicates, read-out: nanoBRET response normalized to 0% (no tracer) and 100% (no inhibitor) control) was 102% and 110% and the “nanoBRET response normalized to 0% (no tracer) and 100% (no inhibitor) control” value ([1]; CDKL1, inhibitor 16 nM, two replicates, listed as RN341, 0.016 µM) was 102.251%. For the same molecule, the remaining activity at 0.016 µM ([1]; CDKL1, inhibitor 16 nM, two replicates, read-out: nanoBRET response normalized to 0% (no tracer) and 100% (no inhibitor) control) was 96.8%, the remaining activity at 0.05 µM ([1]; CDKL1, inhibitor 50 nM, two replicates, read-out: nanoBRET response normalized to 0% (no tracer) and 100% (no inhibitor) control) was 106% and 102% and the “nanoBRET response normalized to 0% (no tracer) and 100% (no inhibitor) control” value ([1]; CDKL1, inhibitor 250 nM, two replicates, listed as RN341, […]) was 106.285%. The remaining activity at […] ([1]; CDKL1, inhibitor 250 nM, two replicates, read-out: nanoBRET response normalized to 0% (no tracer) and 100% (no inhibitor) control) was 116%, the “nanoBRET response normalized to 0% (no tracer) and 100% (no inhibitor) control” value ([1]; CDKL1, inhibitor 500 nM, two replicates, listed as RN341, 0.5 µM) was 96.8094% and the remaining activity at 0.5 µM ([1]; CDKL1, inhibitor 500 nM, two replicates, read-out: nanoBRET response normalized to 0% (no tracer) and 100% (no inhibitor) control) was 106%. The “nanoBRET response normalized to 0% (no tracer) and 100% (no inhibitor) control” value ([1]; CDKL1, inhibitor 2500 nM, two replicates, listed as RN341, […]) was 88.1398%, the remaining activity at […] ([1]; CDKL1, inhibitor 2500 nM, two replicates, read-out: nanoBRET response normalized to 0% (no tracer) and 100% (no inhibitor) control) was 91% and the “nanoBRET response normalized to 0% (no tracer) and 100% (no inhibitor) control” value ([1]; CDKL1, inhibitor 5000 nM, two replicates, listed as RN341, 5 µM) was 77.8643%. The remaining activity at 5 µM ([1]; CDKL1, inhibitor 5000 nM, two replicates, read-out: nanoBRET response normalized to 0% (no tracer) and 100% (no inhibitor) control) was 74.8%, the “nanoBRET response normalized to 0% (no tracer) and 100% (no inhibitor) control” value ([1]; CDKL1, inhibitor 25000 nM, two replicates, listed as RN341, 25 µM) was 39.2489% and the remaining activity at 25 µM ([1]; CDKL1, inhibitor 25000 nM, two replicates, read-out: nanoBRET response normalized to 0% (no tracer) and 100% (no inhibitor) control) was 46.9%. For the same molecule, the “nanoBRET response normalized to 0% (no tracer) and 100% (no inhibitor) control” value ([2]; JNK2, inhibitor 8 nM, two replicates, listed as RN341, 0.008 µM) was 97.2218%, the remaining activity at 0.008 µM ([2]; JNK2, inhibitor 8 nM, two replicates, read-out: nanoBRET response normalized to 0% (no tracer) and 100% (no inhibitor) control) was 103% and the “nanoBRET response normalized to 0% (no tracer) and 100% (no inhibitor) control” value ([2]; JNK2, inhibitor 16 nM, two replicates, listed as RN341, 0.016 µM) was 96.1223%. For the same molecule, the remaining activity at 0.016 µM ([2]; JNK2, inhibitor 16 nM, two replicates, read-out: nanoBRET response normalized to 0% (no tracer) and 100% (no inhibitor) control) was 95.8%, the “nanoBRET response normalized to 0% (no tracer) and 100% (no inhibitor) control” value ([2]; JNK2, inhibitor 50 nM, two replicates, listed as RN341, 0.05 µM) was 96.724% and the remaining activity at 0.05 µM ([2]; JNK2, inhibitor 50 nM, two replicates, read-out: nanoBRET response normalized to 0% (no tracer) and 100% (no inhibitor) control) was 91.7%. The “nanoBRET response normalized to 0% (no tracer) and 100% (no inhibitor) control” value ([2]; JNK2, inhibitor 250 nM, two replicates, listed as RN341, […]) was 80.9747%, the remaining activity at […] ([2]; JNK2, inhibitor 250 nM, two replicates, read-out: nanoBRET response normalized to 0% (no tracer) and 100% (no inhibitor) control) was 78.7% and the “nanoBRET response normalized to 0% (no tracer) and 100% (no inhibitor) control” value ([2]; JNK2, inhibitor 500 nM, two replicates, listed as RN341, 0.5 µM) was 61.7006%. For the same molecule, the remaining activity at 0.5 µM ([2]; JNK2, inhibitor 500 nM, two replicates, read-out: nanoBRET response normalized to 0% (no tracer) and 100% (no inhibitor) control) was 65.3%, the “nanoBRET response normalized to 0% (no tracer) and 100% (no inhibitor) control” value ([2]; JNK2, inhibitor 2500 nM, two replicates, listed as RN341, […]) was 73.4181% and the remaining activity at […] ([2]; JNK2, inhibitor 2500 nM, two replicates, read-out: nanoBRET response normalized to 0% (no tracer) and 100% (no inhibitor) control) was 71.9%. The “nanoBRET response normalized to 0% (no tracer) and 100% (no inhibitor) control” value ([2]; JNK2, inhibitor 5000 nM, two replicates, listed as RN341, 5 µM) was 50.6395%, the remaining activity at 5 µM ([2]; JNK2, inhibitor 5000 nM, two replicates, read-out: nanoBRET response normalized to 0% (no tracer) and 100% (no inhibitor) control) was 57.2% and the “nanoBRET response normalized to 0% (no tracer) and 100% (no inhibitor) control” value ([2]; JNK2, inhibitor 25000 nM, two replicates, listed as RN341, 25 µM) was 6.955%. The remaining activity at 25 µM ([2]; JNK2, inhibitor 25000 nM, two replicates, read-out: nanoBRET response normalized to 0% (no tracer) and 100% (no inhibitor) control) was 9.64%, the EC50 ([2]; in cellulo nanoBRET, 293T cells) was < 5 µM and 2.7 µM and the EC50 [3] was ≥ 20 µM. For the same molecule, the “nanoBRET response normalized to 0% (no tracer) and 100% (no inhibitor) control” value ([3]; STK17B, inhibitor 8 nM, two replicates, listed as RN341, 0.008 µM) was 97.0874%, the NanoBRET tracer signal (% of no-inhibitor control) at 0.008 µM ([3]; STK17B, inhibitor 8 nM, two replicates, read-out: nanoBRET response normalized to 0% (no tracer) and 100% (no inhibitor) control) was 97.6% and the “nanoBRET response normalized to 0% (no tracer) and 100% (no inhibitor) control” value ([3]; STK17B, inhibitor 16 nM, two replicates, listed as RN341, 0.016 µM) was 82.8095%. The NanoBRET tracer signal (% of no-inhibitor control) at 0.016 µM ([3]; STK17B, inhibitor 16 nM, two replicates, read-out: nanoBRET response normalized to 0% (no tracer) and 100% (no inhibitor) control) was 94.7%, the “nanoBRET response normalized to 0% (no tracer) and 100% (no inhibitor) control” value ([3]; STK17B, inhibitor 50 nM, two replicates, listed as RN341, 0.05 µM) was 109.03% and the NanoBRET tracer signal (% of no-inhibitor control) at 0.05 µM ([3]; STK17B, inhibitor 50 nM, two replicates, read-out: nanoBRET response normalized to 0% (no tracer) and 100% (no inhibitor) control) was 112%.
